According to ChEMBL document CHEMBL1149385, “A selective estrogen receptor modulator for the treatment of hot flushes” (J Med Chem, 2006):
pKi: −log10 of the molar value. Activity calls are given as the source filed them. The calls are words filed in the database; no cut-off is given here.

What was measured:
Rattus norvegicus [1] = experiment: Inhibition of estrogen-induced effect on uterine weight in orally dosed Sprague-Dawley rat; assay type: functional
Estrogen receptor [2] = biological target: T1, Estrogen receptor (Homo sapiens, UniProt Q92731+P03372); experiment: Antagonist effect on Ishikawa uterine cancer cell line in presence of 17-beta-estradiol; assay type: functional, cell-based
Estrogen receptor [3] = biological target: T2, Estrogen receptor (Homo sapiens, UniProt P03372); experiment: Displacement of [3H]17beta-estradiol from ERalpha
T2 sequence (P03372 whole entry): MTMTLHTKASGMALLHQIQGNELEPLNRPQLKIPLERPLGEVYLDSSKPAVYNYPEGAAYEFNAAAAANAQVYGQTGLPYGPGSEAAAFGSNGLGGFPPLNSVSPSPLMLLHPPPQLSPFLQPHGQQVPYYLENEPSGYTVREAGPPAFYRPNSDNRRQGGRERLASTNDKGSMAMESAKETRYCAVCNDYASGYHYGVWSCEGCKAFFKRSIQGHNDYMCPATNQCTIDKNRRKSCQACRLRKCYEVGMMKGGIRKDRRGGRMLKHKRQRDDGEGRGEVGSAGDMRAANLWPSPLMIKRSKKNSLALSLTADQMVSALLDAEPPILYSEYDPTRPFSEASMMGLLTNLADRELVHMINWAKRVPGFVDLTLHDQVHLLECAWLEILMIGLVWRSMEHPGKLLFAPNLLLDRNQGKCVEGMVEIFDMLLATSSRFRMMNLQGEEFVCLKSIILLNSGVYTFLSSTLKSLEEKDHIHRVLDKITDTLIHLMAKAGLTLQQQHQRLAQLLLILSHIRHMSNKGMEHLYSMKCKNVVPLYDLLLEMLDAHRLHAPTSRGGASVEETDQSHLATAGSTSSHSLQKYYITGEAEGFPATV

Estrogen receptor beta = Estrogen receptor beta (Homo sapiens, UniProt Q92731); experiment: Displacement of [3H]17beta-estradiol from ERbeta
Sequence of Estrogen receptor beta (Q92731 whole entry): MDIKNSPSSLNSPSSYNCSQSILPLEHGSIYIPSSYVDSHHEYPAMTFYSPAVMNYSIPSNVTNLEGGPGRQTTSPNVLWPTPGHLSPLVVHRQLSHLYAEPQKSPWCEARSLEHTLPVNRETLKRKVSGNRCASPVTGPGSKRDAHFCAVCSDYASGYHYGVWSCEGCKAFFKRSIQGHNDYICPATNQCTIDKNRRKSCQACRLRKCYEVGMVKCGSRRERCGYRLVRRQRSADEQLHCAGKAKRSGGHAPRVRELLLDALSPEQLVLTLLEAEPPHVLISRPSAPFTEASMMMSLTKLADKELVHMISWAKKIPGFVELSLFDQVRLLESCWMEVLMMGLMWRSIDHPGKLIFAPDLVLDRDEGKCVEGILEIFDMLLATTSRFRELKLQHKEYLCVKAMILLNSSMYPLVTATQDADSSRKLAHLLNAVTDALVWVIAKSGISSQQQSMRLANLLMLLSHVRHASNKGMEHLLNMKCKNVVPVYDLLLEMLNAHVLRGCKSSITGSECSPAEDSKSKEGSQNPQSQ

Estrogen receptor [4] = biological target: T1, Estrogen receptor; experiment: Antagonist effect on breast adenocarcinoma-derived MCF7 cell line; assay type: functional, cell-based
Rattus norvegicus [5] = experiment: Efficacy against hot flush in morphine dependent ovariectomized orally dosed Sprague-Dawley rat model; assay type: functional, organism-based
Rattus norvegicus [6] = experiment: Ability to block ovariectomy-induced bone loss in orally dosed Sprague-Dawley rat; assay type: functional, organism-based
Rattus norvegicus [7] = experiment: Eosinophil peroxidase activity in ovariectomized orally dosed Sprague-Dawley rat; assay type: functional, organism-based; details: filed as agonist
Rattus norvegicus [8] = experiment: Ability to reduce serum cholesterol level in ovariectomized orally dosed Sprague-Dawley rat at 0.01 mg/kg; assay type: functional; parameters: scale not given: the % may be the effect or the level left; details: route oral

| IC50 (Estrogen receptor [2]) [nM] | pKi (Estrogen receptor [3]) | pKi (Estrogen receptor beta) | IC50 (Estrogen receptor [4]) [nM] | Activity (Rattus norvegicus [7]) | Compound | ED50 (Rattus norvegicus [1]) | Efficacy (Rattus norvegicus [5]) | ED50 (Rattus norvegicus [1]; po) [mg/kg] | Activity (Rattus norvegicus [6]) | Activity (Rattus norvegicus [8]) [%] |
| --- | --- | --- | --- | --- | --- | --- | --- | --- | --- | --- |
| 430 | 8.24 | 7.27 | 330 |  | Cl.Oc1ccc2c3c(ccc2c1)-c1cc(F)cc(F)c1O[C@H]3c1ccc(OCCN2CCCCC2)cc1 | inactive |  |  |  |  |
| 5.3 | 9.52 | 9.30 | 1.4 | Antagonist | Cl.Oc1ccc2c3c(ccc2c1)-c1cc(F)cc(F)c1O[C@@H]3c1ccc(OCCN2CCCCC2)cc1 |  | Dose-dependent effect | 0.03 | Active | 50 |
|  |  |  |  | Antagonist | O=C(c1ccc(OCCN2CCCC2)cc1)c1c(-c2ccc(O)cc2)sc2cc(O)ccc12 |  |  |  | Active |  |
